Experimental data: patent publication US20210322443A1 (MAPREG, priority 2015, published 2021)

Columns and labels:
MAP2 = MAP2 (Homo sapiens, UniProt P11137); experiment: Binding by displacement of PREG-3H
[1] = biological target: purified tubulin and MAP2 (Homo sapiens, UniProt P11137); experiment: Increase in optical density at 345 nm of purified tubulin and MAP2 (microtubule polymerization); type: biochemical; conditions: 37° C., GTP
Protocol: Activity is measured by the increase in optical density at 345 nm of a mixture of purified tubulin and MAP2, incubated at 37° C. in the presence of GTP.

PC12 cells = experiment: Stimulation of neuritic sprouting in NGF-differentiated PC12 cells; type: cell-based; conditions: NGF 10 ng/ml, steroid 30 μM, 3 days, relative to PREG
Protocol: Stimulation of neuritic sprouting is conducted on PC12 cells differentiated in the presence of NGF (10 ng/ml) and the steroid being tested (30 μM) for 3 days. For each condition, the average length of the longest 200 neurites in each cell is measured simultaneously for 3 cultures.

[2] = biological target: T1, human progesterone receptor(PR) (Homo sapiens, UniProt P06401); experiment: Progesterone receptor agonist transactivation (MMTV-luciferase) in transfected HEK293T cells; type: cell-based; conditions: 24 hours, increasing amounts, FIG. 1
T1 construct: expressed in transfected cells; host or cells: HEK293T
T1 sequence (P06401 1-933): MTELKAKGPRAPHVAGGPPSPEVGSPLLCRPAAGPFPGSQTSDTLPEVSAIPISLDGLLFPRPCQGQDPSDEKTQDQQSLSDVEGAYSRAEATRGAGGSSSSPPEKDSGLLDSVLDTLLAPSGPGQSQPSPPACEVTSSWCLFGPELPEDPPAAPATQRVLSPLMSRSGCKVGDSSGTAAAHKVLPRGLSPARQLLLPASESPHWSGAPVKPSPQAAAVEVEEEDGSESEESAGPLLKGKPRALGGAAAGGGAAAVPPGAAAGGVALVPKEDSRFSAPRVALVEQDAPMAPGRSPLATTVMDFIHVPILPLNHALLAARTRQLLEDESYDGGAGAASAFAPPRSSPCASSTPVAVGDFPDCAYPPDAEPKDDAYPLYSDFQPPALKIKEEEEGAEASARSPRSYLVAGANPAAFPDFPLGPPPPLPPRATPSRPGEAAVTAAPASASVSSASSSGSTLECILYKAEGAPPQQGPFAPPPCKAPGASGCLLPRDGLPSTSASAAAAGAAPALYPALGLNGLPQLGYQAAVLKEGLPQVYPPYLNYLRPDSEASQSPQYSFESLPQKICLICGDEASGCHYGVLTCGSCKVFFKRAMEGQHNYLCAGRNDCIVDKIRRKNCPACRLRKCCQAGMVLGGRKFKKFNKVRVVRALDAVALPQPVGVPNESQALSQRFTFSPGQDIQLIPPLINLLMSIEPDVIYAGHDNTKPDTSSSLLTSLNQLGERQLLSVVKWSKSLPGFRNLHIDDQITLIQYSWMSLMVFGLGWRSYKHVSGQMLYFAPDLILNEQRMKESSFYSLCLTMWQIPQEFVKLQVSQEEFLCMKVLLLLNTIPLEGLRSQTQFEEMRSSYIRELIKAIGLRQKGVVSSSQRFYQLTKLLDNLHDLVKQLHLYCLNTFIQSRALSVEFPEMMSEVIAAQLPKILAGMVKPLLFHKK
Protocol: The main experimental setting used is the following: HEK293T cells were transiently transfected, using calcium phosphate precipitation technology, with expression vectors pSG5hPR (which permits expression of human progesterone receptor(PR)), pFC31-luc (contains the luciferase gene under the control of the MMTV promoter, which is in turn activated by binding of a progestin to progesterone receptor) and pcbetagal (which permits expression of betagalactosidase), and cultured during 24 hours with increasing amounts of various compositions: • 1. […] Test of progesterone receptor […] activity: transfected cells were cultured with progesterone (1 nM) and increasing amounts of RU486 (a well-known progesterone receptor antagonist) or 3-methoxy-pregnenolone. • With this setting, a compound with progesterone receptor antagonist activity competes with progesterone for the occupation of progesterone receptor and results in a progressive loss of transactivation activity when the amount of this compound is increased compared to progesterone.

Sequence of MAP2 (P11137 whole entry): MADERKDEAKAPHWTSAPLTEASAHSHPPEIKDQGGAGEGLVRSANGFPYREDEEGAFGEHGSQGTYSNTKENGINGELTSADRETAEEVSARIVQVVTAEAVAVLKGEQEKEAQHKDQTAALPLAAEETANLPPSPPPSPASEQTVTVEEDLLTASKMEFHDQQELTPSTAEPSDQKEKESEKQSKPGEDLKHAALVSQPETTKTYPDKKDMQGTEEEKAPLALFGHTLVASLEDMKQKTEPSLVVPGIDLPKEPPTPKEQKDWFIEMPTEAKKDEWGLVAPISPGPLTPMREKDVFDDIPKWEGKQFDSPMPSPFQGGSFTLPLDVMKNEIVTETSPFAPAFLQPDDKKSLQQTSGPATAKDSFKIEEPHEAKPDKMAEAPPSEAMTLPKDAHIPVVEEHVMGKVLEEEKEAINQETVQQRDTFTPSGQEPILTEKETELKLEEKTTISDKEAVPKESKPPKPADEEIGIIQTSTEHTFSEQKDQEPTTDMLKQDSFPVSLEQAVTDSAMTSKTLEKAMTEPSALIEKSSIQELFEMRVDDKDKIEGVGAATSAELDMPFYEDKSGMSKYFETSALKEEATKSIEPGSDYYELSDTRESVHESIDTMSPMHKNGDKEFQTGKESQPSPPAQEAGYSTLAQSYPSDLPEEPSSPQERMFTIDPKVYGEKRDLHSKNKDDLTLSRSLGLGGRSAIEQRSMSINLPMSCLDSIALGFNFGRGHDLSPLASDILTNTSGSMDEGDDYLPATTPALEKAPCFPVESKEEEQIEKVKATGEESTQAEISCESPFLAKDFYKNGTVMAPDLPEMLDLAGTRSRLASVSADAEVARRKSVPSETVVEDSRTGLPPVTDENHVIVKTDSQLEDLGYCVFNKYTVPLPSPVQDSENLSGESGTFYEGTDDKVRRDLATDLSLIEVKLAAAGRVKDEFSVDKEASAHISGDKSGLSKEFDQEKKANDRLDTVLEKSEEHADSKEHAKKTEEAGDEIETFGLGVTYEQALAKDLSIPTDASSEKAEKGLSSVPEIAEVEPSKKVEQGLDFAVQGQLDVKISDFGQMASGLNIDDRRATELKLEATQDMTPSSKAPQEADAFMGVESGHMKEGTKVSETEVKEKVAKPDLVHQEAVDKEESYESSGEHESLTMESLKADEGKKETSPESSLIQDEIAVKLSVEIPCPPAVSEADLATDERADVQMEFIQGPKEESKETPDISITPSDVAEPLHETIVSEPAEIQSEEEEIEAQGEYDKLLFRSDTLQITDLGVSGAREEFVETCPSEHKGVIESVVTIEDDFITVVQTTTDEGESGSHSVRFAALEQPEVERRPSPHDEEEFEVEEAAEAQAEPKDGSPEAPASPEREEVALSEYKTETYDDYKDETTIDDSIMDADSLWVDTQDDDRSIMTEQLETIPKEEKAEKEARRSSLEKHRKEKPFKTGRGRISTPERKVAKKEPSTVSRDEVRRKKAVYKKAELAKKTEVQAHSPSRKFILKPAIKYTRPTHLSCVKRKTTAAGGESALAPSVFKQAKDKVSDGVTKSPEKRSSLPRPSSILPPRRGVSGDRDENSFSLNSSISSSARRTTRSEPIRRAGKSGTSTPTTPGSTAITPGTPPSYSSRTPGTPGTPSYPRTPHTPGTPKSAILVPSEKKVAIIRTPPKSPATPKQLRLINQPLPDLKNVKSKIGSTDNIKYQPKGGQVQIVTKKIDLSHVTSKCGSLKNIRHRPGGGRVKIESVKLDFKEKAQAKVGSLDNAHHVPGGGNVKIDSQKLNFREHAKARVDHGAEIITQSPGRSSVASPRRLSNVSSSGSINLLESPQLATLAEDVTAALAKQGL
Sequence of purified tubulin and MAP2 (P11137 whole entry): as above

Compound	Affinity (index of binding, percent of PREG) (MAP2)	Activity (percent of PREG) [1]	Neuritic sprouting (PC12 cells)	progesterone receptor agonist activity (transactivation, luciferase expression) [2]
CO[C@H]1CC[C@@]2(C)C(CCC3C2CC[C@@]2(C)C3CC[C@@H]2[C@@H](C)O)C1 (stereo partly drawn) [3B-methoxy-5a-pregnane-20B-ol, 3β-methoxy-5α-pregnane-20β-ol]	65% of PREG	65% of PREG	++ (equal to)	
CC(=O)[C@H]1CC[C@H]2[C@@H]3CC=C4C[C@@H](O)CC[C@]4(C)[C@H]3CC[C@]12C [Pregnenolone (PREG), 3β-hydroxypregn-5-en-20-one, reference compound]	100% of PREG	100% of PREG		
CC(=O)[C@H]1CC[C@H]2[C@@H]3CCC4=CC(=O)CC[C@]4(C)[C@H]3CC[C@]12C [progesterone, reference compound]				permits a transactivation activity leading to the expression of luciferase
CO[C@H]1CC[C@@]2(C)C(=CC[C@@H]3[C@@H]2CC[C@@]2(C)[C@H]3CC[C@@]2(C(C)=O)C(Cl)Cl)C1 [3β-methoxy-pregna-5-ene-20-one-17α-dichloromethyl]	53% of PREG	113% of PREG		
CO[C@H]1CC[C@@]2(C)C(=CC[C@H]3C4=CC[C@H](C(C)=O)[C@@]4(C)CC[C@@H]32)C1 [3B-methoxy-pregna-5,14-diene-20-one]	102% of PREG	50% of PREG	+ (stimulation is lower than)	
CO[C@H]1CC[C@@]2(C)[C@@H](CC[C@@H]3[C@@H]2CC[C@]2(C)[C@@H](C(C)=O)CC[C@@H]32)C1 [3B-methoxy-5a-pregnane-20-one, 3β-methoxy-5α-pregnane-20-one]	87% of PREG	10% of PREG	+++	
